Where two headings read alike, the source gives them in different places.
Experiments:
[1] = target: TEAD1 in NCI-H226 cells (Homo sapiens (Human), UniProt P28347); experiment: TEAD degradation in NCI-H226 cell line (immunofluorescence); assay type: cell-based
Method: (§1) Degradation of TEAD isoform TEAD1 by exemplary compounds which has been determined at different time points in two different cell lines, SK-HEP1 and NCI-H226: For the assay, SK-HEP1 (ATCC HTB-52) and NCI-H226 (ATCC CRL-5826) cells were treated in duplicates with the test compounds in a 10-point dose, 1:3 dilution steps, with the top concentration starting at 30 uM (final concentration in assay). After either 16 or 24 hour incubation at 37° C., 95% rH, and 5% CO2, the cells were fixed with 4% PFA and TEAD1 levels were probed using immunofluorescence. The primary antibody used was Anti-TEF1 (BD, 610293) and the secondary antibody used was Alexa Fluor® 488 Goat Anti-Mouse IgG (H+L) (Molecular Probes, A-11001). Finally, the cell nuclei were co-stained by Hoechst 33258 (Invitrogen, H-3569) and imaged using a high content imager. The amount of TEAD degradation was determined by quantifying the fluorescence intensity levels of Anti-TEF1 in each individual cell per well. DC50 was calculated using curve fitting software Genedata Screener. Cell media: The SK-HEP1 cells were cultured in the following media: MEM, +10% FCS, +1× GlutaMAX, +100 μM NEAA, +10 mM HEPES, +0.5% Pen/Strep. The NCI-H226 cells were cultured in the following media: RPMI 1640, +10% FBS, +1× GlutaMAX, +10 mM HEPES, +0.5% Pen/Strep.

[2] = target: TEAD1 in SK-HEP1 cells (Homo sapiens (Human), UniProt P28347); experiment: TEAD degradation in SK-HEP1 cell line (immunofluorescence); assay type: cell-based
Sequence of TEAD1 in SK-HEP1 cells (P28347 whole entry): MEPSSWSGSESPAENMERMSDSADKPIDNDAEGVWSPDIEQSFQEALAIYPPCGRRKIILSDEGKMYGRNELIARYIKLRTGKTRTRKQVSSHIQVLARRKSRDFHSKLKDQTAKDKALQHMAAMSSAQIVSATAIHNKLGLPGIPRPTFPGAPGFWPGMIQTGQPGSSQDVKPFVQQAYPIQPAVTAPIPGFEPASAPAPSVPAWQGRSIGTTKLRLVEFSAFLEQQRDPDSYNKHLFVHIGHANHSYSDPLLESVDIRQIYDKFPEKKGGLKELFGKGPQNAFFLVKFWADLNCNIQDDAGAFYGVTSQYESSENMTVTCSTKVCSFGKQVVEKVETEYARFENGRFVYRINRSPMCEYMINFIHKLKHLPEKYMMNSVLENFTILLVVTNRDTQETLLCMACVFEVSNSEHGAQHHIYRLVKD
Method: as §1

[3] = 24 h incubation, read-out: DC50 NCI-H226 24 h
[4] = 24 hours, ranges, read-out: DC50 NCI-H226
[5] = 24 h incubation, read-out: DC50 SK-HEP1 24 h
[6] = 24 hours, ranges, read-out: DC50 SK-HEP1

Sequence of TEAD1 in NCI-H226 cells (P28347 whole entry, canonical isoform): as the sequence (P28347 whole entry) above

Row | Structure (SMILES) | DC50 [1, 3] [nM] | DC50 [1, 4] [nM] | DC50 [2, 5] [nM] | DC50 [2, 6] [nM] | DC50 ([1]; 16 h incubation, read-out: DC50 NCI-H226 16 h) [nM] | DC50 ([2]; 16 h incubation, read-out: DC50 SK-HEP1 16 h) [nM]
1 | Cn1cc2c3cc(C(=O)NCCOCCOCCOCCOCCNC(=O)COc4ccc5c(c4)CCCN5C(=O)CCl)ccc3n(-c3ccc(C(F)(F)F)cc3)c2n1 [Compound 31, 2-{[1-(2-chloroacetyl)-1,2,3,4-tetrahydroquinolin-6-yl]oxy}-N-[14-({2-methyl-8-[4-(trifluoromethyl)phenyl]-2H,8H-pyrazolo[3,4-b]indol-5-yl}formamido)-3,6,9,12-tetraoxatetradecan-1-yl]acetamide] | 10000 | 9000 to 30000 | 3500 | 3000 to 9000 |  | 
2 | Cc1ncsc1-c1ccc(CNC(=O)[C@@H]2C[C@@H](O)CN2C(=O)[C@@H](NC(=O)CCCCCCOCCOCCOCCNC(=O)c2ccc3c(c2)c2cn(C)nc2n3-c2ccc(C(F)(F)F)cc2)C(C)(C)C)cc1 [Compound 60, (2S,4R)-1-[(2S)-3,3-dimethyl-2-[7-(2-{2-[2-({2-methyl-8-[4-(trifluoro-methyl)phenyl]-2H,8H-pyrazolo[3,4-b]indol-5-yl}formamido)ethoxy]-ethoxy}ethoxy)heptanamido]butanoyl]-4-hydroxy-N-{[4-(4-methyl-1,3-thiazol-5-yl)phenyl]methyl}pyrrolidine-2-carboxamide] |  | 100 to 1000 |  | 100 to 1000 |  | 
3 | CC(=O)O[C@@H]1C[C@@H](C(=O)N[C@@H](C)c2ccc(-c3scnc3C)cc2)N(C(=O)[C@@H](NC(=O)CCCCCC(=O)NCCOCCOCCNC(=O)c2ccc3c(c2)c2cn(C)nc2n3-c2ccc(C(F)(F)F)cc2)C(C)(C)C)C1 [Compound 25, (3R,5S)-1-[(2S)-3,3-dimethyl-2-{6-[(2-{2-[2-({2-methyl-8-[4-(trifluoromethyl)phenyl]-2H,8H-pyrazolo[3,4-b]indol-5-yl}formamido)ethoxy]ethoxy}ethyl)carbamoyl]hexanamido}butanoyl]-5-{[(1S)-1-[4-(4-methyl-1,3-thiazol-5-yl)phenyl]ethyl]carbamoyl}pyrrolidin-3-yl acetate] | 1000 | 1000 to 3000 | 1000 | 100 to 1000 | 1000 | 1000
4 | Cn1cc2c3cc(C(=O)NCCOCCOCCOCCOCCOCC(=O)Nc4cccc5c4C(=O)N(C4CCC(=O)NC4=O)C5=O)ccc3n(-c3ccc(C(F)(F)F)cc3)c2n1 (stereo not shown) [Compound 10, N-[2-(2,6-dioxopiperidin-3-yl)-1,3-dioxo-2,3-dihydro-1H-isoindol-4-yl]-17-({2-methyl-8-[4-(trifluoromethyl)phenyl]-2H,8H-pyrazolo[3,4-b]indol-5-yl}formamido)-3,6,9,12,15-pentaoxaheptadecanamide] | 20000 | 1000 to 3000 |  |  |  | 
5 | Cc1ncsc1-c1ccc(CNC(=O)[C@@H]2C[C@@H](O)CN2C(=O)[C@@H](NC(=O)CCCCCCOCCNC(=O)c2ccc3c(c2)c2cn(C)nc2n3-c2ccc(C(F)(F)F)cc2)C(C)(C)C)cc1 [Compound 77, (2S,4R)-1-[(2S)-3,3-dimethyl-2-{7-[2-({2-methyl-8-[4-(trifluoromethyl)-phenyl]-2H,8H-pyrazolo[3,4-b]indol-5-yl}formamido)ethoxy]heptanamido}-butanoyl]-4-hydroxy-N-{[4-(4-methyl-1,3-thiazol-5-yl)phenyl]methyl}-pyrrolidine-2-carboxamide] |  |  |  | 100 to 1000 |  | 
6 | Cn1cc2c3cc(C(=O)NCCOCCOCCNC(=O)CCCCCCNc4cccc5c4CN(C4CCC(=O)NC4=O)C5=O)ccc3n(-c3ccc(C(F)(F)F)cc3)c2n1 (stereo not shown) [Compound 15, 7-{[2-(2,6-dioxopiperidin-3-yl)-1-oxo-2,3-dihydro-1H-isoindol-4-yl]amino}-N-(2-{2-[2-({2-methyl-8-[4-(trifluoromethyl)phenyl]-2H,8H-pyrazolo[3,4-b]indol-5-yl}formamido)ethoxy]ethoxy}ethyl) heptanamide] |  | 1000 to 3000 |  |  |  | 

— US20250032625A1, “HETEROBIFUNCTIONAL MOLECULES AS TEAD INHIBITORS” (Merck Patent GmbH, priority 2021, published 2025)
